{"source": "paper PMC4033579", "about": "(Journal of experimental therapeutics & oncology, 2012)", "origin": "cited, not measured here", "key": {"[1]": {"test_system": "breast, ovarian, prostate tumor cells", "settings": "prostate cells in culture"}}}
{"smiles": "Cc1cc(Nc2nc(N[C@@H](C)c3ncc(F)cn3)ncc2Cl)[nH]n1", "note": "[AZD 1840]", "values": [{"measurement": "cytotoxicity at concentrations that inhibit Tyr705 phosphorylation", "setting": "[1]", "result": "not cytotoxic"}, {"measurement": "angiogenesis in human tumor xenografts", "setting": "human tumor xenografts", "result": "reduction in angiogenesis"}, {"measurement": "growth of human tumor xenografts", "setting": "human tumor xenografts", "result": "reduced growth"}]}
